From patent publication US7135457B1, “Random peptides that bind to gastro-intestinal tract (GIT) transport receptors and related methods” (Cytogen Corporation, priority 1997, dated 2006)
Square brackets hold non-standard residues; d marks the D form. Peptide text beside a SMILES is read from it. * marks the point of attachment. Dansyl = CN(C)c1cccc2c(S(=O)(=O)*)cccc12

Legend:
[1] = Peptide stability in simulated intestinal fluid (SIF); assay type: in vitro ADME; details: rank of relative stability to SIF, 1 = most stable
Description: The relative stability for ZElan031, ZElan053 and ZElan054 was determined in simulated intestinal fluid (SIF) SIF was made by dissolving 100 mg of pancreatin (Sigma cat# P-5 1625, lot# 122H0812) in 8.4 ml of phosphate stock solution, adjusting the pH to 7.5 with 0.2N NaOH and adjusting the volume to 10 ml with water.
Peptide (3.25 mg) was dissolved in 3.25 ml of 10,000 fold diluted SIF solution at 37° C. Aliquots (0.7 ml) of the digestion solution were then withdrawn at <1 min, 1 h, 3 h, and 21 h or 24 h. The samples were quickly passed through a syringe filter (Millipore Millex-GV 0.22 μm, part# SLGV025LS, lot# H2BM95250) and 300 μL of the filtered solution was immediately injected onto a Hewlett-Packard HPLC system equipped with a C-8 column (Applied Biosystems column and guard column: column-p/n 0711-0023 Spheri-5 ODS 5 μm, 220×4.6 mm). The products were eluted at 1.5 ml/min using an acetonitrile-water gradient. The major fluorescent peaks were collected, lyopholized and identified by MS analysis.

[2] = system: P100 fractions harvested from Caco-2 cells; experiment: Binding of dansylated peptides to P100 fractions and peptide/particle correlation; details: two consecutive assays; versus scrambled PAX2 control
Description: Binding of peptide and/or peptide-coated PLGA particles to membrane (P100) and cytosolic (S100) fractions was assessed by detection of the dansyl moiety incorporated in the peptide. Costar ninety six well ELISA plates were coated with S100 and P100 fractions (100 μg/ml in 0.05 M NaHCO3) overnight at 4° C. The plates were blocked with 0.5% bovine serum albumin in DPBS for 1 h at room temperature and washed 3 times in 1% BSA-DPBS. Peptide-coated particles or peptides were dispersed in the same buffer and added to the plates at concentrations in the range 0.0325-0.5 mg/well. […] The plates were incubated for 1 h at room temperature. The wells were washed 3 times in 1% BSA-DPBS and 100 μl of goat anti-mouse IgGλ:HRP antibody (Southern Biotechnology 1060-05; 1:10,000) was added per well. The plates were incubated for 1 h at room temperature. After washing 3 times in 1% BSA-DPBS 100 μl of TMB substrate (3,3′,5′,5-tetramethylbenzidine; Microwell Peroxidase Substrate System (Kirkegaard and Perry Laboratories 50-76-00)) was added and the optical density was measured at 650 nm at various time intervals.
Binding of dansylated peptides to P100 fractions was assessed to determine if peptide binding was predictive of peptide-coated particle binding.

[3] = Crossreactive binding of GST fusions to dansylated peptides; details: for crossreactive binding to ZElan024 (P31) and ZElan018 (PAX2): 0.5 μg/ml GST fusion
[4] = system: fixed Caco-2 or C2BBe1 cells; experiment: ELISA of GST fusion proteins on fixed Caco-2 or C2BBe1 cells; assay type: binding; details: Caco-2
Description: Fixed Caco-2, C2BBe1, and A431 cell plates were prepared by growing cells on tissue culture treated microtiter plates. When cells were confluent, plates were fixed with 10% formaldehyde, washed twice with PBS and stored with 0.5% BSA-PBS at −20° C. […] The standard ELISA procedure was followed at this point.
The standard ELISA procedure was modified as follows. GST proteins were diluted to an appropriate concentration in PBS containing 1% BSA and 0.05% Tween20 (1% BPT), titered and incubated one hour at room temperature. Following five washes an anti-GST monoclonal antibody was added (Sigma, St. Louis Clone GST-2 diluted 1:10,000 in 1% BPT) and incubated one hour. After five more washes goat anti-mouse IgG2b-HRP was added (Southern Biotechnology Associates Inc., Birmingham, Ala., diluted 1:4000 in 1% BPT) and incubated one hour. After five washes plates were developed with TMB peroxidase substrate (Kirkegard and Perry, Gaithersburg, Md.). All data is presented with background binding subtracted.

[5] = system: polarized Caco-2 monolayers; experiment: Transport and uptake of GST-peptide fusions across/into polarized Caco-2 monolayers (anti-GST ELISA); assay type: in vitro ADME; details: 100 μg/ml GST fusion
Description: Transport and uptake of GST-peptide fusions and deletion derivatives across cultured polarized Caco-2 monolayers over 4 hours in HBSS buffer was examined using an anti-GST ELISA assay. In another experiment, transport and uptake of GST-peptide fusions and deletion derivatives across cultured polarized Caco-2 monolayers over 24 hours in serum-free medium (SFM) was examined using an anti-GST ELISA assay.
a) 4 h HBSS study: Transepithelial electrical flux (TER) across the Caco-2 monolayers grown on snapwells (passage 33; 23 days old) was measured to confirm monolayer integrity before beginning the experiment. The medium was removed and the cells were washed once with bHBSS. bHBSS containing 100 μM chloroquine was added and the cells were incubated for 2 h at 37° C. The bHBSS+chloroquine was replaced with 0.5 ml bHBSS containing GST-peptide fusions (100 μg/ml) and the cells were incubated as before. […] At 4 h, TER was measured, the apical medium was sampled and the apical reservoir was washed 6 times with HBSS. […]
b) 24 h SFM study: Transepithelial electrical flux (TER) across the Caco-2 monolayers grown on snapwells (passage 33; 23 days old) was measured to confirm monolayer integrity before beginning the experiment. […] After 24 hours, TER readings were taken, and samples from the basolateral and apical reservoirs were removed. […]

[6] = system: P100 membrane fraction derived from Caco-2 cells; experiment: GST-PAX2 peptides relative binding to P100 fractions; details: 20 μg/ml; binding to plastic subtracted; GST-HAX42 = 1.00
Description: The peptides and proteins were analyzed by a dansylated peptide ELISA method in which 96 well plates were coated overnight at 4° C. with 100 μl/well coating protein (normally 100 μg/ml P100 membrane fraction) in 0.05M carbonate buffer pH9.6. Nonspecific binding was blocked using 200 μl/well, 2% Marvel/PBS for 2 hours at 37° C. prior to incubation with dansylated peptides. The plates were washed three times with PBS/0.05% Tween 20 and after each subsequent incubation step. […] A buffer blank control was included to ensure that background binding to plastic was not due to the antibodies used in the assay system. […] The plates were then incubated with an anti-mouse λ-HRP conjugated antibody (Southern Biotech 1060-05) at a 1:10,000 dilution in blocking solution, 100 μl/well for 1 hour at room temperature. Plates were developed using 75 μl/well Bionostics TMB substrate and incubated for approximately 10 minutes. The developing reaction was stopped using Bionostics Red Stop solution (25 μl/well), and the optical density of the plates was read at 650 nm.
After subtraction of the GST-peptide binding to plastic from P100 binding values, the binding of GST-PAX2 peptides were represented as a ratio of GST-HAX42 binding to P100, which was given the arbitrary value of 1.00. The following ratios were determined from binding to P100 of GST-peptides at a peptide concentration of 20 μg/ml. Bold denotes positive binding to the P100 membrane fraction.

fixed Caco-2 cells = experiment: Effect of thrombin cleavage on binding of GST-peptide fusions to fixed Caco-2 cells; details: Caco-2
Description: Binding of intact and thrombin-cleaved GST-peptide fusions to fixed Caco-2 cells was compared.
Thirty micrograms of each GST-peptide was treated with bovine thrombin (1μ/ml; 0.4 NIH units; Sigma CN.T9681) for 18 h at room temperature in 20 mM Tris-HCl pH8.0, 150 mM NaCl, 2.5 mM CaCl2. Controls were similarly treated without addition of thrombin. Ten micrograms of each GST-peptide fusion was removed for PAGE analysis, and 10 μg of fusions were added in duplicate to the fixed Caco-2 cells before 5-fold serial dilutions (1% BPT diluent). The fusions were allowed to bind for 1 h at room temperature. Following 6 washes with 1% BPT, binding was assayed by ELISA.

Compound | Rel. Stab. [1] | binding to fixed Caco-2 or C2BBe1 cells relative to GST control [4] | Value: binding to P100 as a ratio of GST-HAX42 binding [6] | also measured
C[C@@H](O)[C@H](NC(=O)[C@@H](N)CCCCNS(=O)(=O)c1cccc2c(N(C)C)cccc12)C(=O)N[C@H](CCCNC(=N)N)C(=O)N[C@@H](CCCCN)C(=O)N[C@@H](CO)C(=O)N[C@@H](CO)C(=O)N[C@H](CCCNC(=N)N)C(=O)N[C@@H](CO)C(=O)N[C@@H](CC(N)=O)C(=O)N1CCC[C@H]1C(=O)N[C@H](CCCNC(=N)N)C(=O)NCC(=O)N[C@H](CCCNC(=N)N)C(=O)N[C@H](CCCNC(=N)N)C(=O)N[C@@H](Cc1c[nH]cn1)C(=O)N1CCC[C@H]1C(=O)NCC(N)=O [ZElan053, H2N-K(dns)TrKSSrSNPrGrrHPG-CONH2] (H-K(Dansyl)T[dR]KSS[dR]SNP[dR]G[dR][dR]HPG-NH2) | 1 | – | – | binding of dansylated peptide to P100 fractions [2]: binding at the highest dilution only
gst-SARDSCPAEDGSRAVRLNGVENANTRKSSRSNPRGRRHP [GST-P31] | – | bound | – | crossreactive binding to ZElan024 (P31) and ZElan018 (PAX2) [3]: no crossreactive binding; transport (flux) across live Caco-2 monolayers, apical to basolateral [5]: higher flux than GST alone
gst-SDHALGTNLRSDNAKEPGDYNCCGNGNSTGRXVFNRRRPSAIPT [GST-HAX42] | – | weak to moderate binding | 1.00 | crossreactivity to ZElan018 (PAX2) and ZElan021 (HAX42) ([3]; 5 μg/ml GST fusion): exhibited crossreactivity
gst-STPPSREAYSRPYSVDSDSDTNAKHSSHNRRLRTRSRPN [GST-PAX2] | – | bound | 1.79 | crossreactive binding to ZElan024 (P31) and ZElan018 (PAX2) [3]: no crossreactive binding
gst-RYKHDIGCDAGVDKKSSSVRGGCGAHSSPPRAGRGPRGTMVSRL [GST-DCX8] | – | bound | – | effect of thrombin cleavage on detection of binding to fixed Caco-2 cells (fixed Caco-2 cells): significantly reduced; transport (flux) across live Caco-2 monolayers, apical to basolateral [5]: higher flux than GST alone
gst-TNAKHSSHNRRLRTRSRPN [GST-106] | – | – | 2.71 | effect of thrombin cleavage on detection of binding to fixed Caco-2 cells (fixed Caco-2 cells): significantly reduced; binding of truncated GST fusion compared with full-length, fixed Caco-2 cells [4]: bound similarly to full-length PAX2
C[C@@H](O)[C@H](NC(=O)[C@@H](N)CCCCNS(=O)(=O)c1cccc2c(N(C)C)cccc12)C(=O)N[C@@H](CCCNC(=N)N)C(=O)N[C@@H](CCCCN)C(=O)N[C@@H](CO)C(=O)N[C@@H](CO)C(=O)N[C@@H](CCCNC(=N)N)C(=O)N[C@@H](CO)C(=O)N[C@@H](CC(N)=O)C(=O)N1CCC[C@H]1C(=O)N[C@@H](CCCNC(=N)N)C(=O)NCC(=O)N[C@@H](CCCNC(=N)N)C(=O)N[C@@H](CCCNC(=N)N)C(=O)N[C@@H](Cc1c[nH]cn1)C(=O)N1CCC[C@H]1C(=O)NCC(N)=O [ZElan031] (H-K(Dansyl)TRKSSRSNPRGRRHPG-NH2) | 3 | – | – | –
C[C@@H](O)[C@H](NC(=O)[C@@H](N)CCCCNS(=O)(=O)c1cccc2c(N(C)C)cccc12)C(=O)N[C@@H](CCCNC(=N)N)C(=O)N[C@@H](CCCCN)C(=O)N[C@@H](CO)C(=O)N[C@@H](CO)C(=O)N[C@H](CCCNC(=N)N)C(=O)N[C@@H](CO)C(=O)N[C@@H](CC(N)=O)C(=O)N1CCC[C@H]1C(=O)N[C@@H](CCCNC(=N)N)C(=O)NCC(=O)N[C@H](CCCNC(=N)N)C(=O)N[C@@H](CCCNC(=N)N)C(=O)N[C@@H](Cc1c[nH]cn1)C(=O)N1CCC[C@H]1C(=O)NCC(N)=O [ZElan054, H2N-K(dns)TRKSSrSNPRGrRHPG-CONH2] (H-K(Dansyl)TRKSS[dR]SNPRG[dR]RHPG-NH2) | 2 | – | – | –
